In US8883963B2 (Cadila Healthcare Limited, priority 2007, dated 2014):

Tests used:
[1] = system: RIN5F (Rat Insulinoma) cells; test: In vitro glucose-dependent insulin secretion (RIN5F cell assay screening protocol); assay type: cell-based; conditions: 16.7 mM glucose load
DPP IV = DPP IV (Homo sapiens, UniProt P27487); test: Stability against DPP IV enzyme; assay type: in vitro ADME; conditions: 37° C.; for % degradation of peptidomimetics in 24 h when incubated with DPP-IV enzyme: 2 μM peptidomimetic; for half-life at 2 μM: DPP IV enzyme, pH 7.8, 2 μM peptidomimetic, read-out: half-life (t1/2) when incubated with DPP-IV enzyme
Method: (§1) Reactions were terminated by the addition of TFA/H2O (15 mL, 10% (v/v)). […] The column was equilibrated with TFA/H20, at a flow rate of 1 mL/min.

[2] = Stability in simulated gastric fluid; assay type: in vitro ADME; conditions: 2 μM peptidomimetic, simulated gastric fluid pH 1.5, 37° C.; for half-life at 2 μM: read-out: half-life (t1/2) when incubated with simulated gastric fluid
Method: as §1

[3] = Stability in liver microsomes; assay type: in vitro ADME; conditions: 2 μM peptidomimetic, human liver microsomes, 37° C.; for half-life at 2 μM: pH 7.8, read-out: half-life (t1/2) when incubated with liver microsomes
Method: as §1

[4] = Stability in simulated intestinal fluid; assay type: in vitro ADME; conditions: 2 μM peptidomimetic, simulated intestinal fluid pH 7.5, 37° C.; for half-life at 2 μM: read-out: half-life (t1/2) when incubated with simulated intestinal fluid
Method: as §1

Human GLP-1 receptor = target: T1, Human GLP-1 receptor (Homo sapiens, UniProt P43220); test: In vitro Human GLP-1 R agonist activity (cyclic AMP determination) in CHO/human GLP1R cells; assay type: cell-based
T1 construct: The full-length cDNA was cloned in pcDNA3.1(+); expressed in transfected cells

human glucagon receptor = target: T2, human glucagon receptor (Homo sapiens, UniProt P47871); test: In vitro human glucagon antagonist activity (inhibition of cAMP production) in CHO/human glucagon R cells; assay type: cell-based; conditions: with saturated concentration of glucagon peptide
T2 construct: The full-length cDNA was cloned in pcDNA3.1 (Invitrogen); expressed in transfected cells

[5] = Stability in human plasma; assay type: in vitro ADME; conditions: 2 μM peptidomimetic, pooled human plasma, 37° C.; for half-life at 2 μM: pH 7.8, read-out: half-life (t1/2) when incubated with human plasma
Method: as §1

T2 sequence (P47871 26-477): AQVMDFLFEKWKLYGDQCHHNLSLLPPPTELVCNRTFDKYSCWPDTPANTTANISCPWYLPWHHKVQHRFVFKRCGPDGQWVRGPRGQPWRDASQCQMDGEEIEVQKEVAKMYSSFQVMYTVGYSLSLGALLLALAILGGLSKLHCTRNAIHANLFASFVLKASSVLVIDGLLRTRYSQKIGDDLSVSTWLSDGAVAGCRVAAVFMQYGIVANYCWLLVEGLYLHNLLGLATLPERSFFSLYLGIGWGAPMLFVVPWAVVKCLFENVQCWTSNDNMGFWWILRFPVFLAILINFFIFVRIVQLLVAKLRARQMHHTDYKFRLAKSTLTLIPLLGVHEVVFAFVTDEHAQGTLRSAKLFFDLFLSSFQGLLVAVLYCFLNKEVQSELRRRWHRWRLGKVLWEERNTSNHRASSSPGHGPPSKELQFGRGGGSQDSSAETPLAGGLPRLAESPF
Chain of DPP IV (P27487 whole entry, species assumed): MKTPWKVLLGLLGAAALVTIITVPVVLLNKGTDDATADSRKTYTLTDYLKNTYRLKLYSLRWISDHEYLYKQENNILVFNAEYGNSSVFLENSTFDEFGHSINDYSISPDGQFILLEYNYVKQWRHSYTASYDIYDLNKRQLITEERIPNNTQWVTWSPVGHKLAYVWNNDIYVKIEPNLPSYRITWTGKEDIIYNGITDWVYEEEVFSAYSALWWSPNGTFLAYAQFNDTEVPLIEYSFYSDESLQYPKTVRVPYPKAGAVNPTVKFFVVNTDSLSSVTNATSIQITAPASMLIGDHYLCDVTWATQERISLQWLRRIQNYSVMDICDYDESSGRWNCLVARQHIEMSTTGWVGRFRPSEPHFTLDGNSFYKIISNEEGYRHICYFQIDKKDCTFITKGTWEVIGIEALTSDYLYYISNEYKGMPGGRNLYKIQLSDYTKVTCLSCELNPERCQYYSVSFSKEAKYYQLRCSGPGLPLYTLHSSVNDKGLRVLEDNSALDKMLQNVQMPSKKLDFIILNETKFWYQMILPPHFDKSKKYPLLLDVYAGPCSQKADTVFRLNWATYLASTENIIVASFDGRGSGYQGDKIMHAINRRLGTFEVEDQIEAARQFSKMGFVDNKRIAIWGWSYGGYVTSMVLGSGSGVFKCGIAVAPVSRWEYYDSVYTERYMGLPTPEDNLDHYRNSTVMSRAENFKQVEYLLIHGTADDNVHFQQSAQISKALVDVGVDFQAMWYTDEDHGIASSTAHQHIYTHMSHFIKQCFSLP
T1 sequence (P43220 24-463): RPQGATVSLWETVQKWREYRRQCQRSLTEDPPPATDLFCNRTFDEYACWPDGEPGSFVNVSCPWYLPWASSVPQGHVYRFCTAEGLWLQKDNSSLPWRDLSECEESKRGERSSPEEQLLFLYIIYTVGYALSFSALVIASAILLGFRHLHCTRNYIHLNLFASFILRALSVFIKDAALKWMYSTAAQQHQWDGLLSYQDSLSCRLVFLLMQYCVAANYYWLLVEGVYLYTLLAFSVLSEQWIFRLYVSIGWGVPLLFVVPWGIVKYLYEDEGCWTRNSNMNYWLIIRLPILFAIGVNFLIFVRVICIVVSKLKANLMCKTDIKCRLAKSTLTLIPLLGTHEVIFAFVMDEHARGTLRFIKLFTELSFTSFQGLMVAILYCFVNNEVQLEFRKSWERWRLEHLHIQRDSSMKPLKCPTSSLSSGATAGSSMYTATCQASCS

Row | SMILES | Insulin secretion ([1]; 0.1 nM test compd.) | Insulin secretion ([1]; 1 nM test compd.) | Insulin secretion ([1]; 10 nM test compd.) | % degradation of peptidomimetics in 24 h when incubated with DPP-IV enzyme (DPP IV) | half-life at 2 μM (DPP IV) | % degradation of peptidomimetics in 24 h when incubated with simulated gastric fluid [2] | % degradation of peptidomimetics in 24 h when incubated with liver microsomes [3] | half-life at 2 μM [3] | % degradation of peptidomimetics in 24 h when incubated with simulated intestinal fluid [4] | Human GLP-1 R activity (cAMP release), % activity with respect to control (Human GLP-1 receptor; 1 nM test compound) | Human GLP-1 R activity (cAMP release), % activity with respect to control (Human GLP-1 receptor; 10 nM test compound) | Human GLP-1 R activity (cAMP release), % activity with respect to control (Human GLP-1 receptor; 100 nM test compound) | Human GLP-1 R activity (cAMP release), % activity with respect to control (Human GLP-1 receptor; 1 μM test compound) | Human GLP-1 R activity (cAMP release), % activity with respect to control (Human GLP-1 receptor; 10 μM test compound) | Human Glucagon receptor antagonistic activity shown as inhibition of cAMP production of Glucagon peptide (human glucagon receptor; 1 nM test compound) | Human Glucagon receptor antagonistic activity shown as inhibition of cAMP production of Glucagon peptide (human glucagon receptor; 10 nM test compound) | Human Glucagon receptor antagonistic activity shown as inhibition of cAMP production of Glucagon peptide (human glucagon receptor; 100 nM test compound) | Human Glucagon receptor antagonistic activity shown as inhibition of cAMP production of Glucagon peptide (human glucagon receptor; 1 μM test compound) | Human Glucagon receptor antagonistic activity shown as inhibition of cAMP production of Glucagon peptide (human glucagon receptor; 10 μM test compound) | % degradation of peptidomimetics in 24 h when incubated with human plasma [5] | further results
1 | CCc1cc(OC)ccc1-c1ccc(CC(NC(=O)[C@H](CC(=O)O)NC(=O)[C@H](CO)NC(=O)[C@@H](NC(=O)C(C)(Cc2ccccc2F)NC(=O)[C@@H](NC(=O)CNC(=O)C(CCC#N)NC(=O)C(C)(C)NC(=O)[C@@H](N)Cc2c[nH]cn2)[C@H](C)O)[C@H](C)O)C(=S)NC(CCCc2ccccc2)C(N)=O)cc1 (single isomer, unassigned) [compound 166] | 15.4 ± 0.14 pg/µg/h | 21.2 ± 0.18 pg/µg/h | 35.6 ± 0.17 pg/µg/h | 86% | 9 h | 15% | 77% | 1 h | 41% | 96 ± 0.02% | 99 ± 0.46% | 99 ± 0.41% | 99 ± 0.66% | 99 ± 0.03% | 19 ± 0.03 pmol/ml/μg prt | 17 ± 0.08 pmol/ml/μg prt | 15 ± 0.01 pmol/ml/μg prt | 14 ± 0.02 pmol/ml/μg prt | 12 ± 0.11 pmol/ml/μg prt | 70% | half-life (t1/2) when incubated with simulated gastric fluid [2]: (8) h; half-life (t1/2) when incubated with simulated intestinal fluid [4]: (6) h; half-life at 2 μM [5]: 8 h
2 | CCc1cc(OC)ccc1-c1ccc(CC(NC(=O)[C@H](CC(=O)O)NC(=O)[C@H](CO)NC(=O)[C@@H](NC(=O)C(C)(Cc2ccccc2F)NC(=O)[C@@H](NC(=O)CNC(=O)C(CCC#N)NC(=O)C(C)(C)NC(=O)[C@@H](N)Cc2c[nH]cn2)[C@H](C)O)[C@@H](C)O)C(=O)NC(CCCc2ccccc2)C(N)=O)cc1 (single isomer, unassigned) [compound 110] | 12.0 ± 0.14 pg/µg/h | 14.3 ± 0.12 pg/µg/h | 27.8 ± 0.32 pg/µg/h | 00% | > 24 h | 43% | 84% | 2 h | 00% | 38 ± 0.11% | 77 ± 0.16% | 85 ± 0.11% | 94 ± 0.08% | 97 ± 0.05% | 18 ± 0.07 pmol/ml/μg prt | 16 ± 0.01 pmol/ml/μg prt | 12 ± 0.03 pmol/ml/μg prt | 8 ± 0.02 pmol/ml/μg prt | 6 ± 0.08 pmol/ml/μg prt | 00% | half-life at 2 μM [2]: 4 h; half-life at 2 μM [4]: > 24 h; half-life at 2 μM [5]: > 24 h
3 | CCc1cc(OC)ccc1-c1ccc(CC(NC(=O)[C@H](CC(=O)O)NC(=O)[C@H](CO)NC(=O)[C@@H](NC(=O)[C@H](Cc2ccccc2)NC(=O)[C@@H](NC(=O)CNC(=O)C(CCC#N)NC(=O)C(C)(C)NC(=O)[C@@H](N)Cc2c[nH]cn2)[C@@H](C)O)[C@@H](C)O)C(=O)NC(CCCc2ccccc2C(F)(F)F)C(N)=O)cc1 (single isomer, unassigned) [compound 79] | 16.5 ± 0.12 pg/µg/h | 22.7 ± 0.17 pg/µg/h | 36.5 ± 0.05 pg/µg/h | 86% |  | 100% | 100% | 0.5 h | 100% | 62 ± 0.11% | 94 ± 0.09% | 99 ± 0.06% | 99 ± 0.14% | 99 ± 0.19% | 6 ± 0.02 pmol/ml/μg prt | 5 ± 0.03 pmol/ml/μg prt | 2 ± 0.61 pmol/ml/μg prt | 0 pmol/ml/μg prt | 0 pmol/ml/μg prt | 70% | half-life at 2 μM [2]: 0.5 h; half-life at 2 μM [4]: 0.5 h; half-life (t1/2) when incubated with human plasma [5]: (9) h
4 | CCc1cc(OC)ccc1-c1ccc(CC(NC(=O)[C@H](CC(=O)O)NC(=O)[C@H](CO)NC(=O)[C@@H](NC(=O)[C@H](Cc2ccccc2)NC(=O)[C@@H](NC(=O)CNC(=O)C(CCC#N)NC(=O)C(C)(C)NC(=O)[C@@H](N)Cc2c[nH]cn2)[C@@H](C)O)[C@@H](C)O)C(=O)NC(CCCc2cc(C)cc(C)c2)C(N)=O)cc1 (single isomer, unassigned) [compound 30] | 17.1 ± 0.11 pg/µg/h | 23.1 ± 0.16 pg/µg/h | 37.0 ± 0.29 pg/µg/h | 00% | > 24 h | 00% | 33% |  | 00% | 38 ± 0.12% | 78 ± 0.15% | 86 ± 0.18% | 95 ± 0.03% | 98 ± 0.09% | 22 ± 0.03 pmol/ml/μg prt | 21 ± 0.05 pmol/ml/μg prt | 20 ± 0.07 pmol/ml/μg prt | 18 ± 0.04 pmol/ml/μg prt | 18 ± 0.03 pmol/ml/μg prt | 00% | half-life at 2 μM [2]: > 24 h; half-life (t1/2) when incubated with liver microsomes [3]: (5) h; half-life at 2 μM [4]: > 24 h; half-life at 2 μM [5]: > 24 h
